Measured values from patent US20050208511A1, “DMBT1 as a clinical marker and uses thereof” (priority 2003, published 2005).

Columns and labels:
DMBT1 [1] = assay: Northern analysis of DMBT1 expression in rat uterus; type: in vivo, Sprague Dawley rats; conditions: for DMBT1 expression increase in uterine tissue: compound alone, oral, three days, estrone 70 μg/kg/day, others 1 mg/kg/day (FIG. 2); for DMBT1 expression on coadministration with estrone: 70 μg/kg/day estrone + 1 mg/kg/day compound, relative to estrone alone (FIG. 3A)
Description: (§1) Ten groups of 22-day-old female Sprague Dawley rats (three animals per group) were used to evaluate the effects of estrone, tamoxifen, raloxifene, and ICI 182780 on DMBT1 expression in the uterus. The following groups of rats were treated for three days as follows:
(§2) All treatments were delivered orally in 0.5% Methocel. After treatment the animals were euthanized and the uteri were collected, weighed, frozen in liquid nitrogen, and stored at −20° C. RNA was purified from the frozen uteri using 1.0 mL of TRIzol Reagent (Invitrogen) and a PowerGen 25 tissue homogenizer (Fisher Scientific), according to the manufacturer's instructions.
Northern analysis was performed to determine gene expression, including DMBT1 expression, in the uterus of control and treated rats. For gel electrophoresis, samples containing 2 μg of total RNA in a volume of 2 μL of water were added to 6 microliters of formaldehyde loading dye (Ambion) and incubated at 65° C. for 20 minutes. One microliter of a 0.1 mg/ml ethidium bromide solution was then added to each sample. […] The RNA was transferred to a Hybond-N membrane (Amersham) for […] by capillary transfer blotting, using 10×SSC (0.15 M Sodium citrate, pH 7.0, 1.5 M NaCl), after which the membranes were stained with ethidium bromide, destained with water, and photographed for lane loading comparison. The membranes were then air-dried and kept at room temperature until hybridization.
A glycerol stock of a bacterial clone carrying a plasmid (pINCY) containing the rat ebnerin (DMBT1) gene was obtained from Incyte Genomics (ID#: 0000101155000011). […] One colony was selected and used to inoculate 200 mL of Lennox L Broth (Sigma)+50 μg/mL ampicillin (Sigma). The liquid culture was grown overnight at 37° C. and the bacteria were collected by centrifugation. Purification of plasmid DNA was carried out using a QIAfilter plasmid maxi kit (QIAgen) according to the manufacturer's instructions.
Purified pINCY/DMBT1 was treated with the restriction enzymes EcoRI and NotI (Promega) for the preparation and isolation of a 1,174 bp DNA fragment containing the ebnerin probe (DMBT1). The products of the restriction enzyme reaction were separated by electrophoresis on a 1× TAE, 1% SeaKem Gold Agarose Reliant gel, and the band corresponding to the 1.174 kb DNA ebnerin clone was excised. The ebnerin DNA probe was purified from the gel slice using a QIAquick Gel Extraction Kit (QIAgen) according to the manufacturer's instructions. Bound DNA was eluted from the QIAgen column with 50 μL of elution buffer. The ebnerin DNA probe in the eluate was quantified by comparison to a DNA standard by gel electrophoresis. The ebnerin DNA probe was then diluted to a final concentration of 25 ng/μL.
Random-primed probe was made from 25 ng of the purified ebnerin DNA using a DECAprime II kit (Ambion) and Redivue α-^32P dATP (10 mCi/mL) (Amersham) according to the manufacturer's instructions, with the exception that the reaction was incubated for 30 minutes at 37° C. After adding EDTA to stop the reaction, the labeled probe was purified using a QIAquick Nucleotide Removal Kit (QIAgen) according to the manufacturer's instructions, with the final volume of eluted probe being 50 μL. Two microliters were counted in a scintillation counter to ensure optimal radionuclide incorporation (>2×10^6 cpm/μL).
The blot membrane as described in section A was wet in 2×SSC buffer (Sigma) for 15 minutes, then pre-hybridized in 10 mL RapidHyb (Amersham) at 65° C. for 20 minutes. The probe was boiled for 10 minutes, and 25 μL was added to 10 mL of RapidHyb, pre-warmed to 65° C. The blot membrane was added to the diluted probe solution and incubated, with rotation, in a hybridization oven for approximately 10 hours.
The membrane was removed from the probe-containing solution and rinsed twice with 2×SSPE +0.5% SDS+0.5% pyrophosphate at room temperature, and then washed once, with gentle agitation, for 30 minutes at room temperature in the same solution.

uterus = assay: uterine weight in 22-day-old female rats; type: in vivo, Sprague Dawley rats; conditions: oral
Description: as §1, §2
In rats, uteri increase in size under the proliferative influence of estrogen, and this increase in size can be measured by weighing the tissues.
Administration of the treatments and collection of tissue samples were carried out according to the procedure described in Example 2. RNA was purified, blotted and hybridized to radioactively labeled rat ebnerin cDNA as in described in Example 2.

endometrium = assay: average endometrial thickness in treated monkeys; type: in vivo, cynomolgus monkeys (Macaca fascicularis); conditions: 19 days
Description: (§3) Adult female cynomolgus monkeys (Macaca fascicularis) were obtained from Covance Research Products. Following one complete menstrual cycle and in the follicular phase of the subsequent menstrual cycle, the animals were ovariectomized by a mid-ventral laparotomy. Ovariectomized (OVX) animals were subject to estrogen treatment after the fourth week following ovariectomy.
Animals and treatment were the same as Example 1 with the following exceptions. To study the effect of PRMs on the endometrium and gene expression, groups of three ovariectomized (OVX) monkeys were given an estrogen implant (E2), plus daily oral doses of the following PRMs for 19 days: mifepristone at 10 mg/kg/d; 17N11-DE (17β-N-substituted-11β-dimethylaminophenyl-estra-4,9-dien-3-one) 1.0, 3.0, or 10 mg/kg/d; 17N11-PE (17β-N-substituted-11β-piperidinylphenyl-estra-4,9-dien-3-one) at 1.0, 3.0, or 10 mg/kg/d. A placebo (0.5% methylcellulose) was administered as a control. 17N11-DE and 17N11-PE are two PRMs that have been described in PCT Publication No. WO 99/62928. Tissue samples were taken from endometria and myometria for histological analysis.

DMBT1 [2] = assay: DNA microarray analysis of DMBT1 expression in endometrium of ovariectomized monkeys; type: in vivo, cynomolgus monkeys (Macaca fascicularis); conditions: OVX monkeys, estrogen implant 19 days vs Ovx/Placebo, endometrium, microarray
Description: as §3
(§4) Following this period, the OVX monkeys were euthanized and tissue biopsies were taken from endometria of the monkeys treated with estrogen and the placebo. (Details of the endometrial features in OVX monkeys and OVX+estrogen-treated monkeys is described in Example 4.) The biopsies were placed in sterile containers, snap frozen immediately in liquid nitrogen, and stored at −80° C. until processed. Total RNA was prepared from each endometrial tissue biopsy, as described below.
Total RNA was prepared from endometrial tissue biopsies (approximately 50 mg each) using RNAzol™ (Tel-Test, Friendswood, Tex.), as follows. Two milliliters of RNAzol™ were used per 100 mg of tissue. Tissues were homogenized for 2 to 3 minutes using a Tissue Tearor homogenizer (Model No. 985-370; BioSpec Products, Bartlesville, Okla.), then transferred to a glass mortar bowl. The tissues were ground with at least 10 strokes of the pestle until a clear suspension was obtained. The homogenates were transferred to a polypropylene conical flask, to which 0.1 mL of chloroform per 1 mL of homogenate was added. The mixtures were then shaken vigorously for 1 minute. The suspensions were then transferred to a 2 mL microcentrifuge tube and centrifuged for 15. minutes at 12000 g and at 4° C. in a fixed angle rotor using a Biofuge 17R centrifuge (Baxter, Deerfield, Ill.). The aqueous phase was carefully transferred to a new microcentrifuge tube. An equal volume of isopropanol was added to the aqueous phase, mixed gently, and incubated at 4° C. for 15 minutes. RNA was pelleted by centrifuging the mixture for 15 minutes at 12000 g and at 4° C. as described above. The supernatant was removed and the pellet washed with 75% (v/v) ethanol (Pharmco Products, Brookfield, Conn.), followed by centrifugation at 7500 g for 8 minutes at 4° C. The supernatant was removed, and then the RNA pellet was air-dried briefly and resuspended in RNase-free water (Promega, Madison, Wis.). The samples were then treated with Amplification Grade RNase-free DNase I to remove any residual DNA (Invitrogen, Carlsbad, Calif.). Specifically, twenty micrograms of RNA were treated in a reaction volume of 0.1 mL, containing 1× DNase I reaction buffer and 10 units of DNase I. The reaction continued at room temperature for 15 minutes. […]

monkey endometrium = assay: DNA microarray gene expression profile (regulated gene identifiers) in endometrium of ovariectomized monkeys; type: in vivo, cynomolgus monkeys (Macaca fascicularis); conditions: Ovx/E2 vs Ovx/Placebo
Description: as §3, §4
Total RNA was prepared from endometrial tissue biopsies (approximately 50 mg each) using RNAzol™ (Tel-Test, Friendswood, Tex.), as follows. Two milliliters of RNAzol™ were used per 100 mg of tissue. Tissues were homogenized for 2 to 3 minutes using a Tissue Tearor homogenizer (Model No. 985-370; BioSpec Products, Bartlesville, Okla.), then transferred to a glass mortar bowl. The tissues were ground with at least 10 strokes of the pestle until a clear suspension was obtained. […]

luminal epithelium = luminal epithelium thickening in rat uterus sections; type: in vivo, Wistar rats; conditions: OVX rats dosed six weeks, compared to sham and ovariectomized control; estrogen = ethinyl estradiol
Description: Mature, six week-old ovariectomized or sham-operated Wistar rats (Charles River) were dosed with ethinyl estradiol, tamoxifen or raloxifene for six weeks. Uteri were removed, sectioned for immunohistochemical analysis for DMBT1 expression using a polyclonal goat antibody against the human protein.
Tissues were trimmed and processed for paraffin embedding according to conventional methods. Five-micron sections were cut, mounted onto SuperFrost Plus+(Fisher Scientific, Pittsburgh, Pa.) microscopic slides and dried overnight. The protocols for routine single immunohistochemistry (IHC) have been described previously (D'Andrea et al., 2001, Biotechnic Histochem. 76:97-106). Briefly, tissue sections on microscopic slides were dewaxed and re-hydrated. Slides were microwaved for 5 min in Target buffer (Dako, Carpenturia, Calif.), cooled, placed in phosphate-buffered saline (PBS, pH 7.4) and treated with 3% (v/v) H2O2 for 10 min at room temperature. All incubations (30 min each) and washes were performed at room temperature. Normal rabbit blocking serum (Vector Labs, Burlingame, Calif.) was placed on all slides for 10 min. After a brief rinse in PBS, sections were treated with goat polyclonal DMBT1 primary antibody (1:25, Hypromatrix, Worcester, Mass.). Slides were then washed in PBS and treated with rabbit anti-goat biotinylated secondary antibodies (Vector Labs). After washing in PBS, the avidin-biotin-horseradish peroxidase complex reagent (HRP, Vector Labs) was added. All slides were washed and treated with 3,3′-diaminobenzidine (DAB, Biomeda, Foster City, Calif.) two times for 5 min each, rinsed in distilled water, and counterstained with hematoxylin.

DMBT1 [3] = assay: quantitative RT-PCR of DMBT1 in uterus of ovariectomized rats; type: in vivo, Wistar rats; conditions: OVX rats, co-treatment with ethinyl estradiol (FIG. 3B)
Description: Six weeks old ovariectomized Wistar rats (Charles River, Wilmington, Mass.) were dosed for either one day or six weeks with vehicle or test compounds. All treatments were delivered orally, once daily, in 0.5% methylcellulose or sesame oil. After treatment, the uteri were removed, total RNA was purified from the tissues using TRIzol reagent (Invitrogen, Carlsbad, Calif.) as directed by the manufacturer.
Quantitative reverse transcription-polymerase chain reactions (RT-PCR) of DMBT1 from rat RNA samples were carried out using a One-Step RT-PCR Master Mix Kit (Applied Biosystems, Foster City, Calif.) and an ABI Prism 7000 Sequence Detection System (Applied Biosystems), as described by the manufacturer. Commercially available primers and FAM-labeled MGB probes for human and rat DMBT1 (catalog numbers Hs00244827_ml and Rn00575705_ml, respectively) were obtained from Applied Biosystems (Foster City, Calif.). Messenger RNA levels were normalized against 18S ribosomal RNA levels determined using primers and a VIC- and TAMRA-labeled probe from the same vendor.

[4] = estrogen-stimulated endometrium (C)

With `C[C@]12CC[C@@H]3c4ccc(O)cc4CC[C@H]3[C@@H]1CCC2=O` [estrone] the “DMBT1 expression increase in uterine tissue” value (DMBT1 [1]) was roughly 5 fold.

With `C[C@]12CC[C@@H]3c4ccc(O)cc4C[C@@H](CCCCCCCCC[S+]([O-])CCCC(F)(F)C(F)(F)F)[C@H]3[C@@H]1CC[C@@H]2O` (some centres unmarked) [ICI 182780] the “uterine weight on co-treatment with estrone” value (uterus; 70 μg/kg/day estrone + 1 mg/kg/day compound, three days (FIG. 1)) was “approximately between that of estrone (E) and ICI 182780 (1) treatments alone”, the uterine weight (uterus; compound alone, three days, estrone 70 μg/kg/day, others 1 mg/kg/day, vs control (FIG. 1)) was “significant decrease in uterine weight” and the “DMBT1 expression on coadministration with estrone” value (DMBT1 [1]; 1 mg/kg/day) was “moderately lowered”. The “DMBT1 expression on coadministration with estrone” value (DMBT1 [1]; listed as ICI 182,780, 1 mg/kg/day) was “inhibited” and the “DMBT1 expression increase in uterine tissue” value (DMBT1 [1]) was “undetectable levels”.

With estrogen the “Endometrial Thickness (mm)” value (endometrium; Ovx/E2/Vehicle) was 3.03 mm, the “endometrial thickness relative to chemically castrated endometrium (B)” value (endometrium; [4]) was 2.5 times and the “endometrial thickness relative to ovariectomized control (A)” value (endometrium; [4]) was “seven to eight times thicker”. For the same compound, the “expression of DMBT1 up-regulated” value (DMBT1 [2]) was 37 fold, the “PR gene regulation by estrogen” value (monkey endometrium) was “threefold up-regulation” and the “insulin-like growth factor binding protein 3 gene regulation by estrogen” value (monkey endometrium) was “tenfold down-regulation”. The “thickening of the luminal epithelium” value (luminal epithelium) was “expected thickening of the luminal epithelium”.

In the case of `CC(=O)O[C@]1(C(C)=O)CC[C@H]2[C@@H]3C[C@H](C)C4=CC(=O)CC[C@]4(C)[C@H]3CC[C@@]21C` [medroxyprogesterone acetate], the “effect on ethinyl estradiol-induced increase in DMBT1 mRNA levels” value (DMBT1 [3]) is reported as “blocked the increase in mRNA levels in a dose-dependent manner”.
